Like-named read-outs stand apart in the source and are kept apart here.
Legend:
[1] = test system: Mtb H37Rv; experiment: MIC90 against replicating (R) Mtb H37Rv, with or without clavulanate; type: cell-based, Mycobacterium tuberculosis; settings: Table S4; for Mtb H37Rv R + CLAV (MIC90): clavulanate 4 μg/mL; for Mtb H37Rv R (MIC90): no clavulanate
[2] = test system: Mtb H37Rv; experiment: MIC90 against nonreplicating (NR, 4-stress) Mtb H37Rv, with or without clavulanate; type: cell-based, Mycobacterium tuberculosis; settings: 4-stress nonreplicating, Table S4; for Mtb H37Rv NR + CLAV (MIC90): clavulanate 4 μg/mL; for Mtb H37Rv NR (MIC90): no clavulanate
[3] = test system: E. coli; experiment: Microbial spectrum, E. coli; type: cell-based, Escherichia coli; settings: clavulanate 4 μg/mL; Table S4
[4] = test system: P. aeruginosa; experiment: Microbial spectrum, P. aeruginosa; type: cell-based, Pseudomonas aeruginosa; settings: clavulanate 4 μg/mL; Table S4
[5] = test system: S. aureus; experiment: Microbial spectrum, S. aureus; type: cell-based, Staphylococcus aureus; settings: clavulanate 4 μg/mL; Table S4
[6] = test system: C. albicans; experiment: Microbial spectrum, C. albicans; type: cell-based, Candida albicans; settings: no clavulanate; Table S4
[7] = test system: HepG2 cells; experiment: Cytotoxicity against HepG2 cells (CellTiter-Glo); type: cell-based, human; settings: Table S4
Experimental: Compounds were tested for cytotoxicity against HepG2 cells as previously described.[48],[69],[70] Briefly, cells were exposed to compounds for 48–72 h, and viability was measured using CellTiter-Glo (Promega).

[8] = test system: wild-type Mtb H37Rv; type: in vivo, 129sv DHP-1 knockout mice; settings: 50 mg/kg sc bid + clavulanate 100 mg/kg po bid, days 9-15, lungs day 16; untreated day 16 mean 9.1
[9] = test system: Caco-2 cells
[10] = uninfected DHP-1 mice
[11] = female, 129sv DHP-1 knockout, mouse, in vivo
[12] = in vivo; settings: female, CD-1, mouse
[13] = in vivo; settings: DHP-1 knockout, mouse, sc
[14] = in vivo; settings: female, 129sv DHP-1 knockout, mouse, sc, 50 mg/kg
[15] = physchem; settings: simulated gi fluid, pH 6.5, FaSSIF Stability, % remaining
[16] = physchem; settings: simulated gi fluid, pH 1.2
[17] = in vitro; settings: male, CD-1, mouse, plasma, Plasma stability % Remaining
[18] = in vitro; settings: SD, rat, plasma, Plasma stability % Remaining
[19] = in vitro; settings: beagle, dog, plasma
[20] = in vitro; settings: monkey, plasma
[21] = in vitro; settings: human, plasma, Plasma stability % Remaining
[22] = in vitro; settings: human; for Papp A→B at 120 min, 3 μM / Papp B→A at 120 min, 3 μM: Caco-2, pH 7.4
[23] = in vitro; settings: cynomolgus monkey, plasma, pH 7.4
[24] = in vitro; settings: beagle, dog, plasma, pH 7.4
[25] = in vitro; settings: CD-1, mouse, plasma, pH 7.4, % bound to plasma
[26] = in vitro; settings: SD, rat, plasma, pH 7.4, % bound to plasma
[27] = in vitro; settings: human, plasma, pH 7.4, % bound to plasma
[28] = Caco-2, pH 7.4, Caco-2 Mean Recovery % A to B
[29] = Caco-2, pH 7.4, Caco-2 Mean Recovery % B to A

O=C(Cc1cccs1)N[C@@H]1C(=O)N2C(C(=O)O)=C(CSc3cccc[n+]3[O-])CS[C@H]12 [TBBL-0000001]
Mtb H37Rv R + CLAV (MIC90) [1]: 1.7 µM | Mtb H37Rv R (MIC90) [1]: 3 µM | Mtb H37Rv NR + CLAV (MIC90) [2]: 2.2 µM | Mtb H37Rv NR (MIC90) [2]: 1.8 µM | E.coli R + CLAV (MIC90) [3]: 26.9 µM | P.aeruginosa R + CLAV (MIC90) [4]: > 100 µM | S.aureus R + CLAV (MIC90) [5]: 0.6 µM | C.albicans R (MIC90) [6]: > 100 µM | HepG2 LD50 [7]: 67.5 µM | Log10 CFU per mouse (lungs), Mean [8]: 8.8 Log10 CFU | Caco-2 Rank Papp [9]: Low | Comments (tolerability) ([10]; 300 mg/kg sc): Recovered at t= 8h | Tlast ([10]; 300 mg/kg sc): 2.0 to 4.0 h | Tlast [11]: 3.0 h | AUC(0-t) ([12]; iv, 5 mg/kg): 5590 ng·h/mL | Vd ([12]; iv, 5 mg/kg): 0.32 L/kg | clearance ([12]; iv, 5 mg/kg): 7.4 mL/min/kg | half-life ([12]; iv, 5 mg/kg): 30 min | k el ([12]; iv, 5 mg/kg): 0.000389 s⁻¹ | AUC(0-t) ([12]; po, 25 mg/kg): 111 ng·h/mL | bioavailability ([12]; po, 25 mg/kg): 0.19% | AUC(0-t) ([13]; 300 mg/kg): 43000 ± 1680 ng·h/mL | Cmax ([13]; 300 mg/kg): 29800 ± 7140 ng/mL | Tmax ([13]; 300 mg/kg): 60 min | AUC(0-t) [14]: 38100 ng·h/mL | Cmax [14]: 27800 ng/mL | Tmax [14]: 60 min | remaining at 24 h, 10 μM [15]: 114% | remaining at 1 h, 10 μM [16]: 102% | remaining at 24 h, 10 μM [16]: 116% | remaining at 2 h, 2 μM [17]: 79.6% | remaining at 2 h, 2 μM [18]: 80.6% | remaining at 2 h, 2 μM [19]: 54.7% | remaining at 2 h, 2 μM [20]: 117% | remaining at 2 h, 2 μM [21]: 77.3% | Papp A→B at 120 min, 3 μM [22]: < 0.04 ×10⁻⁶ cm/s | Papp B→A at 120 min, 3 μM [22]: < 0.03 ×10⁻⁶ cm/s | recovery at 120 min, 3 μM [22, 28]: < 93.1% | recovery at 120 min, 3 μM [22, 29]: < 99.8% | fraction unbound at 4 h, 2 μM [23]: 0.166 | fraction unbound at 4 h, 2 μM [24]: 0.529 | fraction unbound at 4 h, 2 μM [25]: 0.374 | fraction unbound at 4 h, 2 μM [26]: 0.369 | fraction unbound at 4 h, 2 μM [27]: 0.22

O=C(CCCC(NC(=O)c1ccc(Cl)cc1Cl)C(=O)O)N[C@@H]1C(=O)N2C(C(=O)O)=C(CSc3cccc[n+]3[O-])CS[C@H]12 (stereo partly shown) [TBBL-0000552]
Mtb H37Rv R + CLAV (MIC90) [1]: 2.9 µM | Mtb H37Rv R (MIC90) [1]: 2.8 µM | Mtb H37Rv NR + CLAV (MIC90) [2]: 2.1 µM | Mtb H37Rv NR (MIC90) [2]: 1.9 µM | E.coli R + CLAV (MIC90) [3]: 92.6 µM | P.aeruginosa R + CLAV (MIC90) [4]: > 100 µM | S.aureus R + CLAV (MIC90) [5]: > 100 µM | C.albicans R (MIC90) [6]: > 100 µM | HepG2 LD50 [7]: 74.3 µM | Log10 CFU per mouse (lungs), Mean [8]: 9.4 Log10 CFU | Caco-2 Rank Papp [9]: Low | Tlast ([10]; 300 mg/kg sc): 4.0 h | Tlast [11]: 3.0 h | AUC(0-t) ([12]; iv, 5 mg/kg): 7570 ng·h/mL | Vd ([12]; iv, 5 mg/kg): 0.74 L/kg | clearance ([12]; iv, 5 mg/kg): 11 mL/min/kg | half-life ([12]; iv, 5 mg/kg): 46.8 min | k el ([12]; iv, 5 mg/kg): 0.000247 s⁻¹ | AUC(0-t) ([12]; po, 25 mg/kg): 42 ng·h/mL | bioavailability ([12]; po, 25 mg/kg): 0.11% | AUC(0-t) ([13]; 300 mg/kg): 61900 ± 24900 ng·h/mL | Cmax ([13]; 300 mg/kg): 29900 ± 11000 ng/mL | Tmax ([13]; 300 mg/kg): 60 to 120 min | AUC(0-t) [14]: 3660 ng·h/mL | Cmax [14]: 6190 ng/mL | Tmax [14]: 30 min | remaining at 6 h, 10 μM [15]: 111% | remaining at 24 h, 10 μM [15]: 106% | remaining at 1 h, 10 μM [16]: 105% | remaining at 24 h, 10 μM [16]: 61.5% | remaining at 2 h, 2 μM [17]: 89.4% | remaining at 2 h, 2 μM [18]: 77.8% | remaining at 2 h, 2 μM [19]: 77.9% | remaining at 2 h, 2 μM [20]: 119% | remaining at 2 h, 2 μM [21]: 78.6% | Papp A→B at 120 min, 3 μM [22]: < 0.43 ×10⁻⁶ cm/s | Papp B→A at 120 min, 3 μM [22]: 0.38 ×10⁻⁶ cm/s | recovery at 120 min, 3 μM [22, 28]: < 106% | recovery at 120 min, 3 μM [22, 29]: 123% | fraction unbound at 4 h, 2 μM [23]: 0.198 | fraction unbound at 4 h, 2 μM [24]: 0.417 | fraction unbound at 4 h, 2 μM [25]: 0.439 | fraction unbound at 4 h, 2 μM [26]: 0.109 | fraction unbound at 4 h, 2 μM [27]: 0.143

O=C(O)C1=C(CSc2cccc[n+]2[O-])CS[C@@H]2[C@H](NC(=O)/C(=N\Oc3ccccc3)c3ccco3)C(=O)N12 [TBBL-0000005]
Mtb H37Rv R + CLAV (MIC90) [1]: 2.7 µM | Mtb H37Rv R (MIC90) [1]: 2.9 µM | Mtb H37Rv NR + CLAV (MIC90) [2]: 1.5 µM | Mtb H37Rv NR (MIC90) [2]: 1.8 µM | E.coli R + CLAV (MIC90) [3]: > 100 µM | P.aeruginosa R + CLAV (MIC90) [4]: > 100 µM | S.aureus R + CLAV (MIC90) [5]: 0.8 µM | C.albicans R (MIC90) [6]: > 100 µM | HepG2 LD50 [7]: 88.7 µM | Log10 CFU per mouse (lungs), Mean [8]: 8.9 Log10 CFU | Caco-2 Rank Papp [9]: Low | Comments (tolerability) ([10]; 50 mg/kg sc): No side effects | Tlast ([10]; 50 mg/kg sc): 2.0 to 4.0 h | Tlast [11]: 6.0 h | AUC(0-t) ([12]; iv, 5 mg/kg): 3330 ng·h/mL | Vd ([12]; iv, 5 mg/kg): 0.23 L/kg | clearance ([12]; iv, 5 mg/kg): 5 mL/min/kg | half-life ([12]; iv, 5 mg/kg): 32.4 min | k el ([12]; iv, 5 mg/kg): 0.000356 s⁻¹ | AUC(0-t) ([12]; po, 25 mg/kg): 97 ng·h/mL | bioavailability ([12]; po, 25 mg/kg): 0.11% | AUC(0-t) ([13]; 50 mg/kg): 18200 ± 7180 ng·h/mL | Cmax ([13]; 50 mg/kg): 26600 ± 10000 ng/mL | Tmax ([13]; 50 mg/kg): 15 to 30 min | AUC(0-t) [14]: 7920 ng·h/mL | Cmax [14]: 4130 ng/mL | Tmax [14]: 30 min | remaining at 6 h, 10 μM [15]: 98.7% | remaining at 24 h, 10 μM [15]: 98.5% | remaining at 1 h, 10 μM [16]: 120% | remaining at 24 h, 10 μM [16]: 76.6% | remaining at 2 h, 2 μM [17]: 60.6% | remaining at 2 h, 2 μM [18]: 35.2% | remaining at 2 h, 2 μM [19]: 51.3% | remaining at 2 h, 2 μM [20]: 108% | remaining at 2 h, 2 μM [21]: 73.7% | Papp A→B at 120 min, 3 μM [22]: < 0.33 ×10⁻⁶ cm/s | Papp B→A at 120 min, 3 μM [22]: < 0.28 ×10⁻⁶ cm/s | recovery at 120 min, 3 μM [22, 28]: < 88.9% | recovery at 120 min, 3 μM [22, 29]: < 89.8% | fraction unbound at 4 h, 2 μM [23]: 0.06 | fraction unbound at 4 h, 2 μM [24]: 0.186 | fraction unbound at 4 h, 2 μM [25]: 0.06 | fraction unbound at 4 h, 2 μM [26]: 0.121 | fraction unbound at 4 h, 2 μM [27]: 0.129
